Patent US9481709B2, “Boropeptide inhibitors of enteropeptidase and their uses in treatment of obesity, overweight and/or diseases associated with an abnormal fat metabolism” (OBE THERAPY BIOTECHNOLOGY, priority 2007, dated 2016)

Legend:
[1] = biological target: T1, Trypsin from human pancreas (Homo sapiens, UniProt P07477); test: Trypsin assay; type: biochemical; conditions: in vitro; range printed jointly for trypsin, kallikrein and plasmin
T1 construct: Trypsin from human pancreas; purchased SIGMA T6424; host or cells: human pancreas
Protocol: (§1) 2.2. Thrombin, Trypsin, Kallikrein, Plasmin, Chymotrypsin and Elastase Assay
(§2) Table IV below lists the final concentrations of the tested enzymes and the corresponding substrates, in the determination of the IC50 without inhibitor (positive control) and in inhibition protocols:
(§3) Measurement without Inhibitor (Positive Control)
(§4) In 17 μl of TN, 1 μl of enzyme and 2 μl of substrate was mixed, just before reading; The Absorbance was measured at 405 nm on EnVision (Perkin Elmer).
(§5) Inhibition in 384 Well Plate Small Volume ([…])
(§6) In 15 μl of TN, 1 μl of enzyme and 2 μl of Inhibitor (compound of the invention) at different concentrations were mixed and incubated at RT for 30 minutes; 2 μl of substrate was added, just before reading; The Absorbance was measured at 405 nm on EnVision (Perkin Elmer).

[2] = biological target: T2, Kallikrein from human plasma (Homo sapiens, UniProt P03952); test: Kallikrein assay; type: biochemical; conditions: in vitro
T2 construct: Kallikrein from human plasma; purchased SIGMA K2638; host or cells: human plasma
T2 sequence (P03952 391-638 limits assumed): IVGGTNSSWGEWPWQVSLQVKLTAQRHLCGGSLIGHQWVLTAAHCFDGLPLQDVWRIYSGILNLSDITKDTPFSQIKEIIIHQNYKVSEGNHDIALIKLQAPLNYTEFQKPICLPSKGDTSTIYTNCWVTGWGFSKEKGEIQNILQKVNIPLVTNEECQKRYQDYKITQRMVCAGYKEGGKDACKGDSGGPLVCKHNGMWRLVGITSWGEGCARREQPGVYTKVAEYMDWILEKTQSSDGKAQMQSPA
T2 sequence (P03952 20-390 partner limits assumed): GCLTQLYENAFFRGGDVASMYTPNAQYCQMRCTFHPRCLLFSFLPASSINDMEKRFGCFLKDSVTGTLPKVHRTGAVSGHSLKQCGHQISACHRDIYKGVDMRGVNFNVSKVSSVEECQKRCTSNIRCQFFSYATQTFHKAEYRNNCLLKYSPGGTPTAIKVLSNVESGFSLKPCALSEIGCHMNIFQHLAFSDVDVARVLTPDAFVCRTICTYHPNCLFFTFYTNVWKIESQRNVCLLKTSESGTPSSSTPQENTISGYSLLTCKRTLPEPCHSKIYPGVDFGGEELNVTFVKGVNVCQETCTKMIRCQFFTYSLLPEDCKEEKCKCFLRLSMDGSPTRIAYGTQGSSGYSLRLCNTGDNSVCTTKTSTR
Protocol: as §1, §2, §3, §4, §5, §6

[3] = biological target: T3, Plasmin from human plasma (Homo sapiens, UniProt P00747); test: Plasmin assay; type: biochemical; conditions: in vitro
T3 construct: Plasmin from human plasma; purchased SIGMA P1867; host or cells: human plasma
T3 sequence (P00747 581-810 limits assumed): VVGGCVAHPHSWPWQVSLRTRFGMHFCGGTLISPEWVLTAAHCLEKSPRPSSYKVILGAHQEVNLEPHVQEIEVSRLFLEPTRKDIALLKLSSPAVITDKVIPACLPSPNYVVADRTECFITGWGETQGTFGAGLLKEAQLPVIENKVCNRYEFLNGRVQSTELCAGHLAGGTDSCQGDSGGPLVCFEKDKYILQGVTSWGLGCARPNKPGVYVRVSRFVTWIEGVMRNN
T3 sequence (P00747 98-580 partner limits assumed): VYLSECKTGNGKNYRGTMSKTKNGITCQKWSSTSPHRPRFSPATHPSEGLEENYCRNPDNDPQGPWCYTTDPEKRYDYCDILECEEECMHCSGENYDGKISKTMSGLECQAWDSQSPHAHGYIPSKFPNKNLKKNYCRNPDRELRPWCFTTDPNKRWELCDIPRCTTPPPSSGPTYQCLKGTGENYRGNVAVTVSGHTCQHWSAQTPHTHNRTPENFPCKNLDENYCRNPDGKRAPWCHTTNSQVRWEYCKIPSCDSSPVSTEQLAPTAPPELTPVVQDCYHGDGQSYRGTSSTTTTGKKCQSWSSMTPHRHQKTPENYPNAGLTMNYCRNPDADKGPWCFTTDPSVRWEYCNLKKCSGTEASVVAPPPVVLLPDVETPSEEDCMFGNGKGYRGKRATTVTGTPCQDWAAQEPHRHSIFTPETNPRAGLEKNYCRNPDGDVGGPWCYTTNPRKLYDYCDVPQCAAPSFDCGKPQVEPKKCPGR
Protocol: as §1, §2, §3, §4, §5, §6

[4] = biological target: Thrombin (Homo sapiens, UniProt P00734); test: Thrombin
Text: (§7) Table printed on a drawing sheet, Fig. 5
Head of the field: Thrombin
(§8) The patent's description of the figure: FIG. 5 is a Table showing the IC 50 (in nM) of enteropeptidase, various serine proteases and other enzyme families, in the presence of compounds OBE 1999, OBE 2000, OBE 2001 or OBE 2002.
(§9) First copying reader's note: Each column is one compound; each row gives its IC50 against the named enzyme.
Where the first naming reader finds the target: head: Thrombin

[5] = biological target: Plasmin (Homo sapiens, UniProt P00747); test: Plasmin
Chain of Plasmin (P00747 97-810): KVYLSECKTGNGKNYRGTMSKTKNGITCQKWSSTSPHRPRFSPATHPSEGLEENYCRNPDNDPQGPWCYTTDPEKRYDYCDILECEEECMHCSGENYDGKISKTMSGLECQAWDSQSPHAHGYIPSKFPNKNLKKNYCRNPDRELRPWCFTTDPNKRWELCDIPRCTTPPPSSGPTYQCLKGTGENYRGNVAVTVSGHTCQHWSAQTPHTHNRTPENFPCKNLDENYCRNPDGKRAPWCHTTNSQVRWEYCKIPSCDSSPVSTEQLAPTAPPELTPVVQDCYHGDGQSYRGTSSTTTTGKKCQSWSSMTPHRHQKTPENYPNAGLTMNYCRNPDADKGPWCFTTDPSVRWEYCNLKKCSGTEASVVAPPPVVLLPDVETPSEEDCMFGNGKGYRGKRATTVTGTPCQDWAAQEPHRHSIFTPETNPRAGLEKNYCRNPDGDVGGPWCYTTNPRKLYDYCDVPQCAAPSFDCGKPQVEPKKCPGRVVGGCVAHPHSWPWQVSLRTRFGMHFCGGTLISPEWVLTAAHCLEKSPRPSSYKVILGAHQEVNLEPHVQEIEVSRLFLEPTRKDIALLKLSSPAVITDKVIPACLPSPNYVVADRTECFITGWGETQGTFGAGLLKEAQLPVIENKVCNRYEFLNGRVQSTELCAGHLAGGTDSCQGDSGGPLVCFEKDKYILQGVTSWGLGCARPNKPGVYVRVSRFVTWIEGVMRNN
Text: as §7
Head of the field: Plasmin
as §8, §9
Where the first naming reader finds the target: head: Plasmin

[6] = biological target: Kallikrein (Homo sapiens, UniProt P03952); test: Kallikrein
Chain of Kallikrein (P03952 20-638): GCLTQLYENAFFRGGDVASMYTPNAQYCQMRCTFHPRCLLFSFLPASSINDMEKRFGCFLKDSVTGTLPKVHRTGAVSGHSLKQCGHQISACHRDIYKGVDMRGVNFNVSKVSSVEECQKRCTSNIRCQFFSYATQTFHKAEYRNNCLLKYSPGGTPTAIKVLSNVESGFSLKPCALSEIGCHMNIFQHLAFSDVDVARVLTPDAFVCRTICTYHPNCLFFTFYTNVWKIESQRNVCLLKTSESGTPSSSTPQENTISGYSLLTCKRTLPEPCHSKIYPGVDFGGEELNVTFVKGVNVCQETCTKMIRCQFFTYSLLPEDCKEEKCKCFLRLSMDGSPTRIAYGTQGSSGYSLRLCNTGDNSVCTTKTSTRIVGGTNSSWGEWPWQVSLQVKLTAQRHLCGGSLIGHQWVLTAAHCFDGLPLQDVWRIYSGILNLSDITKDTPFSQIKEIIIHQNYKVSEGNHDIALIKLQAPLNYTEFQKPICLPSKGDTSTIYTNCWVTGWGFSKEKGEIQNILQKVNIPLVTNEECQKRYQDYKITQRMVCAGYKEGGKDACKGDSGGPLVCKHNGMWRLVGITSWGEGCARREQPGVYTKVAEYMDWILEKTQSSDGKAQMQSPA
Text: as §7
Head of the field: Kallikrein
as §8, §9
Where the first naming reader finds the target: head: Kallikrein

[7] = biological target: T4, Enteropeptidase (Homo sapiens, UniProt P98073); test: Enteropeptidase assay (Np Tosyl Gly Pro Arg pNa substrate, absorbance 405 nm); type: biochemical; parameters: purchased RD system 1585SE; conditions: in vitro, 30 min preincubation at RT
Protocol: 2.1. Enteropeptidase Assay
Activation of the Enteropeptidase
A mix of enteropeptidase at 58.8 nM (final) and thermolysine at 1.58 ng/I (final) in TCN buffer was prepared; the mix was incubated at 37° C. during 30 minutes for activation. Phosphoramidon (10 μM final) was added to stop the activation by thermolysine.
Measurement of Enteropeptidase Activity without Inhibitor (Positive Control)
In 17 μl of TCN, 1 μl of active enzyme (2.9 nm final) and 2 μl Np Tosyl Gly Pro Arg pNa (1 mM final) were mixed, just before reading. The Absorbance was measured at 405 nm on EnVision (Perkin Elmer).
as §5
Target sequence in this assay (P98073 785-1019 limits assumed): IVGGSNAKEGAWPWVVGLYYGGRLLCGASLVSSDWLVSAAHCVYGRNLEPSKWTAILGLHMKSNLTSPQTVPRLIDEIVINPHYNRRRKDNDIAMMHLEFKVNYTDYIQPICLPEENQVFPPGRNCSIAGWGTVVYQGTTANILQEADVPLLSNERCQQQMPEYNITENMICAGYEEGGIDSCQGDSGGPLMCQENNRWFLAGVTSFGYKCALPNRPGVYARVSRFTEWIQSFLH
Target sequence in this assay (P98073 2-784 partner limits assumed): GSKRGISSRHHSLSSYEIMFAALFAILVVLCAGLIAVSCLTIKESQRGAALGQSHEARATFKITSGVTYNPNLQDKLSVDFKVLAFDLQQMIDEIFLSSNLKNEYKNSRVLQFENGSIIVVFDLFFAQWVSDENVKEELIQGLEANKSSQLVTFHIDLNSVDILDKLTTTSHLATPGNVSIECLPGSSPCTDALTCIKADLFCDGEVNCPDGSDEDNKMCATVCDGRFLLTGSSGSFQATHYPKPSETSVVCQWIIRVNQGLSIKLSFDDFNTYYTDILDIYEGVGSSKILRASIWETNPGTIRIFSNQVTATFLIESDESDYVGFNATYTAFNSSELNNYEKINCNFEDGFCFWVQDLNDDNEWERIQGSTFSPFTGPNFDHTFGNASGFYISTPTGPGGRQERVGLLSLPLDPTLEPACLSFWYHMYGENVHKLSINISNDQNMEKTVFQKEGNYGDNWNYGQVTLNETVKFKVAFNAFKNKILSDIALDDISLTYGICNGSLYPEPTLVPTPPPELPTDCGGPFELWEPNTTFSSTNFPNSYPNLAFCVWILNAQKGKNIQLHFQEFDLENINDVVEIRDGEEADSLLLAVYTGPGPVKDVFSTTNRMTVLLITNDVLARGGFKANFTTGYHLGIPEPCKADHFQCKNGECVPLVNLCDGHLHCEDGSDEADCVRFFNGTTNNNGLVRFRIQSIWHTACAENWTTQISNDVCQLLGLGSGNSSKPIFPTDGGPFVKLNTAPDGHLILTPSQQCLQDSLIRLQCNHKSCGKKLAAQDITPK
In 15 μl of TCN, 1 μl of active enzyme and 2 μl of Inhibitor (compound of the invention) at different concentrations were mixed, and incubated at RT (room temperature) for 30 minutes; 2 μl Np Tosyl Gly Pro Arg pNa (1 mM final) was added just before reading. The Absorbance was measured at 405 nm on EnVision (Perkin Elmer).

[8] = biological target: T5, Thrombin from human plasma (Homo sapiens, UniProt P00734); test: Thrombin assay; type: biochemical; conditions: in vitro
T5 construct: Thrombin from human plasma; purchased SIGMA T1063; host or cells: human plasma
Protocol: as §1, §2, §3, §4, §5, §6

[9] = biological target: T4, Enteropeptidase; test: Enteropeptidase
Text: as §7
Target sequence in this assay (P98073 2-1019): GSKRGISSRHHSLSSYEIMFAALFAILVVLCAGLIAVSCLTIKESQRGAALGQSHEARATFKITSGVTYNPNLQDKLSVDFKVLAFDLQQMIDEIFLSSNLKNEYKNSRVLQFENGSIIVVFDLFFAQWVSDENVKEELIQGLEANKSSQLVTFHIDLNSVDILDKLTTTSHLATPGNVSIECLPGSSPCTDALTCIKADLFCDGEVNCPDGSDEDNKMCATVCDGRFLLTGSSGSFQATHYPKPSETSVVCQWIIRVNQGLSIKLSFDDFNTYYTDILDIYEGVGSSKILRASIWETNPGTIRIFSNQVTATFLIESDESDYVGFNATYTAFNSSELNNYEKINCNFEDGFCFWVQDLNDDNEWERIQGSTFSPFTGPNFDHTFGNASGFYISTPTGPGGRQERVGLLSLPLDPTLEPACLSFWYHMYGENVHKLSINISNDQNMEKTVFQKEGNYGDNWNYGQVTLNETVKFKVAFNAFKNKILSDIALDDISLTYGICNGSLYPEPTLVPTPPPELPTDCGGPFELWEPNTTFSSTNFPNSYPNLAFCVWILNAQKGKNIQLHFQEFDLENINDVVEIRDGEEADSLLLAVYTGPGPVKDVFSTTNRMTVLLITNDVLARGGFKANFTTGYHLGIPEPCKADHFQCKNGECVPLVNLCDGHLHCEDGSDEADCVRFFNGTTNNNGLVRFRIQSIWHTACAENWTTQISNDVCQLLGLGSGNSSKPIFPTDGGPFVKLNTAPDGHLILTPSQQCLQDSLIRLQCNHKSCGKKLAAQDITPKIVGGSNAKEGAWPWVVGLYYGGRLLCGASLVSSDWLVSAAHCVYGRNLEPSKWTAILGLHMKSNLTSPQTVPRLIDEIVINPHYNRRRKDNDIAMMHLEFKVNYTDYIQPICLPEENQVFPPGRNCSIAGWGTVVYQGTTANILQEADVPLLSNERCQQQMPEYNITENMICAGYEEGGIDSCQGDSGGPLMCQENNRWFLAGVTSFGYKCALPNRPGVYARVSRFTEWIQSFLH
Head of the field: Enteropeptidase
as §8, §9
Where the first naming reader finds the target: head: Enteropeptidase

[10] = biological target: Trypsin (Homo sapiens, UniProt P07477); test: Trypsin
Text: as §7
Head of the field: Trypsin
as §8, §9
Where the first naming reader finds the target: head: Trypsin

| IC50 [1] | IC50 [2] | IC50 [3] | IC50 [4] | IC50 [7] | IC50 thrombin [8] | IC50 enteropeptidase [7] | Structure (SMILES) | IC50 [5] | IC50 [6] | IC50 [9] | IC50 kallikrein [2] | IC50 plasmin [3] | IC50 [10] |
| --- | --- | --- | --- | --- | --- | --- | --- | --- | --- | --- | --- | --- | --- |
| 7.5 to 29.8 nM | 7.5 to 29.8 nM | 7.5 to 29.8 nM | 6400 nM | 33 nM | – | – | C[C@H](N)C(=O)N[C@@H](Cc1ccccc1)C(=O)N[C@@H](CCCNC(=N)N)B1OC2C[C@@H]3C[C@@H](C3(C)C)[C@]2(C)O1 (stereo partly shown) [OBE1999] | 29.8 nM | 7.5 nM | – | – | – | – |
| – | 260 nM | 7100 nM | 3220 nM | – | high value of IC50 | low value of IC50 | CC1(C)[C@@H]2CC3OB([C@H](CCCNC(=N)N)NC(=O)CNC(=O)[C@@H](N)CCC(=O)O)O[C@@]3(C)[C@H]1C2 (stereo partly shown) [OBE2000] | – | – | 68 nM | – | – | – |
| – | – | – | – | – | – | – | CC(=O)N[C@@H](CCC(=O)O)C(=O)NCC(=O)N[C@@H](CCCN=C(N)N)B(O)O [OBE2002, Acetyl-Glu-Gly-BoroArg] | 3800 nM | 81.4 nM | 33.6 nM | low IC50 value | low IC50 value | 10.5 nM |
